Measurements taken from patent US20250215029A1 (Recludix Pharma, Inc., priority 2022, published 2025).

Legend:
[1] = molecular target: T1, Recombinant STAT6 protein (STAT6 (W123-T658)) (Homo sapiens, UniProt P42226); assay: STAT6 Fluorescence Polarization (FP) Assay; assay type: binding; settings: STAT6 (W123-T658) 250 nM, probe 5-FAM-Ap[…]-NH2 2 nM, 45-minute incubation; read-out: STAT6 (FP assay IC50 class)
T1 construct: Recombinant STAT6 protein (STAT6 (W123-T658))
T1 sequence (P42226 123-658): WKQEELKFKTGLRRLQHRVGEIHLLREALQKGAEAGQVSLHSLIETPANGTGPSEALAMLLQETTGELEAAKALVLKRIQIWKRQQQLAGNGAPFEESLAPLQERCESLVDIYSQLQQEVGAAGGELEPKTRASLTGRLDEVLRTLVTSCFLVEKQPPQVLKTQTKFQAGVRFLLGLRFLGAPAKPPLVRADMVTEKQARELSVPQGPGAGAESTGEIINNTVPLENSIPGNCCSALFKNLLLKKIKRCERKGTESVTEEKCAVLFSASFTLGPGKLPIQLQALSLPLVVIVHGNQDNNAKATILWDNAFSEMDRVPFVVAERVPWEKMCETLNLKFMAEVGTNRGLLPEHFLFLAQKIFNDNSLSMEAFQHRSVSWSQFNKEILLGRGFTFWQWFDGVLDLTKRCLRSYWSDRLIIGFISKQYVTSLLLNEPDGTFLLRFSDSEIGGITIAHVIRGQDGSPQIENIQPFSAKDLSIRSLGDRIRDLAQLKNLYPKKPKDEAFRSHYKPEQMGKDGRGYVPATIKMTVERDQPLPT
How it was run: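 STAT6 (W123-T658) at 250 nM was mixed with 2 nM 5-FAM-labeled phosphotyrosine peptide probe in HEPES pH 7.4 buffer with NaCl, EDTA, Tween 20 and DTT, then added to serially diluted compounds at 1% DMSO final. Polarization was read after 45 min at room temperature; IC50 came from nonlinear regression of mP versus log concentration.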

[2] = molecular target: T2, Recombinant STAT3 protein (STAT3 (G127-I722)) (Homo sapiens, UniProt P40763); assay: STAT3 Fluorescence Polarization (FP) Assay; assay type: binding; settings: STAT3 (G127-I722) 25 nM, probe 5-FAM-GpYLPQTV-NH2 2 nM, 45-minute incubation; read-out: STAT3 (FP assay IC50 class)
T2 construct: Recombinant STAT3 protein (STAT3 (G127-I722))
T2 sequence (P40763 127-722): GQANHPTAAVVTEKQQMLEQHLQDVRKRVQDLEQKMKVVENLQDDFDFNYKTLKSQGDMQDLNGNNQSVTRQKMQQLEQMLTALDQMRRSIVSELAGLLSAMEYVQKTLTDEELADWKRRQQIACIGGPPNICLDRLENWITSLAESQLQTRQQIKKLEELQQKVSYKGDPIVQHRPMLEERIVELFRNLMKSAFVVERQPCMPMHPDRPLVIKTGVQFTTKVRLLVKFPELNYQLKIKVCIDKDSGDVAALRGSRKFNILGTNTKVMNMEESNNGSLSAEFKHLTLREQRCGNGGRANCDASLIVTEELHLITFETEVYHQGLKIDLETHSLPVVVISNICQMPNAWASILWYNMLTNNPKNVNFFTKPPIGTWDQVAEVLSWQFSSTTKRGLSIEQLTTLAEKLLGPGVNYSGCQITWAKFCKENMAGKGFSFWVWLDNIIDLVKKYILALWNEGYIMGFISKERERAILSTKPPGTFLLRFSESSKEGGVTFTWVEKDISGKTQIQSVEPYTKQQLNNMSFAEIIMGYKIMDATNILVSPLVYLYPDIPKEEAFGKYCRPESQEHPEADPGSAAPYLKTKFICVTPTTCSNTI
How it was run: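 Displacement of a fluorescent phosphotyrosine peptide (5-FAM-GpYLPQTV-NH2, 2 nM) from 25 nM recombinant STAT3 G127-I722 was monitored by FP after 45 min at room temperature.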

IC50 [1]	IC50 [2]	SMILES
0.3 to 3 µM	0.1 to 1 µM	O=C(N[C@H]1CCCC[C@H]2CC[C@@H](C(=O)N3CC(c4nc5ccccc5o4)C3)N2C1=O)c1cc2cc(C(F)(F)P(=O)(O)O)ccc2s1 [Compound 497, ((2-(((3S,6S,10aS)-3-(3-(benzo[d]oxazol-2-yl)azetidine-1-carbonyl)-5-oxodecahydropyrrolo[1,2-a]azocin-6-yl)carbamoyl)benzo[b]thiophen-5-yl)difluoromethyl)phosphonic acid]
0.3 to 3 µM	< 0.1 µM	COC1(c2cccnc2)CN(C(=O)[C@@H]2CC[C@@H]3CCC[C@H](NC(=O)c4cc5cc(C(F)(F)P(=O)(O)O)ccc5s4)C(=O)N32)C1 [Compound 498, (difluoro(2-(((3S,6S,9aS)-3-(3-methoxy-3-(pyridin-3-yl)azetidine-1-carbonyl)-5-oxooctahydro-1H-pyrrolo[1,2-a]azepin-6-yl)carbamoyl)benzo[b]thiophen-5-yl)methyl)phosphonic acid]
0.3 to 3 µM	< 0.1 µM	Cc1ccncc1C1CN(C(=O)[C@@H]2CC[C@@H]3CCCC[C@H](NC(=O)c4cc5cc(C(F)(F)P(=O)(O)O)ccc5s4)C(=O)N32)C1 [Compound 499, (difluoro(2-(((3S,6S,10aS)-3-(3-(4-methylpyridin-3-yl)azetidine-1-carbonyl)-5-oxodecahydropyrrolo[1,2-a]azocin-6-yl)carbamoyl)benzo[b]thiophen-5-yl)methyl)phosphonic acid]
3 to 30 µM	0.1 to 1 µM	Cc1ccncc1C1CN(C(=O)[C@@H]2CC[C@@H]3CC(C)C[C@H](NC(=O)c4cc5cc(CP(=O)(O)O)ccc5s4)C(=O)N32)C1 (stereo partly drawn) [Compound 500, ((2-(((3S,6S,9aR)-8-methyl-3-(3-(4-methylpyridin-3-yl)azetidine-1-carbonyl)-5-oxooctahydro-1H-pyrrolo[1,2-a]azepin-6-yl)carbamoyl)benzo[b]thiophen-5-yl)methyl)phosphonic acid]
3 to 30 µM	0.1 to 1 µM	COC1(c2cnccc2C)CN(C(=O)[C@@H]2CC[C@@H]3CCCC[C@H](NC(=O)c4cc5cc(C(F)(F)P(=O)(O)O)ccc5s4)C(=O)N32)C1 [Compound 501, (difluoro(2-(((3S,6S,10aS)-3-(3-methoxy-3-(4-methylpyridin-3-yl)azetidine-1-carbonyl)-5-oxodecahydropyrrolo[1,2-a]azocin-6-yl)carbamoyl)benzo[b]thiophen-5-yl)methyl)phosphonic acid]
3 to 30 µM	0.1 to 1 µM	COc1ccncc1C1CN(C(=O)[C@@H]2CC[C@@H]3CCC[C@H](NC(=O)c4cc5cc(CP(=O)(O)O)ccc5s4)C(=O)N32)C1 [Compound 502, ((2-(((3S,6S,9aS)-3-(3-(4-methoxypyridin-3-yl)azetidine-1-carbonyl)-5-oxooctahydro-1H-pyrrolo[1,2-a]azepin-6-yl)carbamoyl)benzo[b]thiophen-5-yl)methyl)phosphonic acid]
3 to 30 µM	0.1 to 1 µM	CCc1ccncc1C1CN(C(=O)[C@@H]2CC[C@@H]3CCC[C@H](NC(=O)c4cc5cc(CP(=O)(O)O)ccc5s4)C(=O)N32)C1 [Compound 503, ((2-(((3S,6S,9aS)-3-(3-(4-ethylpyridin-3-yl)azetidine-1-carbonyl)-5-oxooctahydro-1H-pyrrolo[1,2-a]azepin-6-yl)carbamoyl)benzo[b]thiophen-5-yl)methyl)phosphonic acid]
3 to 30 µM	1 to 10 µM	Cc1c(F)cncc1C1CN(C(=O)[C@@H]2CC[C@@H]3CCC[C@H](NC(=O)c4cc5cc(CP(=O)(O)O)ccc5s4)C(=O)N32)C1 [Compound 504, ((2-(((3S,6S,9aS)-3-(3-(5-fluoro-4-methylpyridin-3-yl)azetidine-1-carbonyl)-5-oxooctahydro-1H-pyrrolo[1,2-a]azepin-6-yl)carbamoyl)benzo[b]thiophen-5-yl)methyl)phosphonic acid]
3 to 30 µM	1 to 10 µM	Cc1ccnc(F)c1C1CN(C(=O)[C@@H]2CC[C@@H]3CCC[C@H](NC(=O)c4cc5cc(CP(=O)(O)O)ccc5s4)C(=O)N32)C1 [Compound 505, ((2-(((3S,6S,9aS)-3-(3-(2-fluoro-4-methylpyridin-3-yl)azetidine-1-carbonyl)-5-oxooctahydro-1H-pyrrolo[1,2-a]azepin-6-yl)carbamoyl)benzo[b]thiophen-5-yl)methyl)phosphonic acid]
3 to 30 µM	1 to 10 µM	COc1cncc(C2CN(C(=O)[C@@H]3CC[C@@H]4CCC[C@H](NC(=O)c5cc6cc(CP(=O)(O)O)ccc6s5)C(=O)N43)C2)c1C [Compound 506, ((2-(((3S,6S,9aS)-3-(3-(5-methoxy-4-methylpyridin-3-yl)azetidine-1-carbonyl)-5-oxooctahydro-1H-pyrrolo[1,2-a]azepin-6-yl)carbamoyl)benzo[b]thiophen-5-yl)methyl)phosphonic acid]
3 to 30 µM	1 to 10 µM	Cc1cc(N(C)C)ncc1C1CN(C(=O)[C@@H]2CC[C@@H]3CCC[C@H](NC(=O)c4cc5cc(CP(=O)(O)O)ccc5s4)C(=O)N32)C1 [Compound 507, ((2-(((3S,6S,9aS)-3-(3-(6-(dimethylamino)-4-methylpyridin-3-yl)azetidine-1-carbonyl)-5-oxooctahydro-1H-pyrrolo[1,2-a]azepin-6-yl)carbamoyl)benzo[b]thiophen-5-yl)methyl)phosphonic acid]
3 to 30 µM	1 to 10 µM	O=C(N[C@H]1CCC[C@H]2CC[C@@H](C(=O)N3CCC(c4cccnc4)C3)N2C1=O)c1cc2cc(CP(=O)(O)O)ccc2s1 (stereo partly drawn) [Compound 508, ((2-(((3S,6S,9aS)-5-oxo-3-(3-(pyridin-3-yl)pyrrolidine-1-carbonyl)octahydro-1H-pyrrolo[1,2-a]azepin-6-yl)carbamoyl)benzo[b]thiophen-5-yl)methyl)phosphonic acid]
3 to 30 µM	1 to 10 µM	O=C(N[C@H]1CCCC[C@H]2CC[C@@H](C(=O)N3CCC(c4cccnc4)C3)N2C1=O)c1cc2cc(CP(=O)(O)O)ccc2s1 (stereo partly drawn) [Compound 509, ((2-(((3S,6S,10aS)-5-oxo-3-(3-(pyridin-3-yl)pyrrolidine-1-carbonyl)decahydropyrrolo[1,2-a]azocin-6-yl)carbamoyl)benzo[b]thiophen-5-yl)methyl)phosphonic acid]
3 to 30 µM	1 to 10 µM	Cc1c(C#N)cncc1C1CN(C(=O)[C@@H]2CC[C@@H]3CCC[C@H](NC(=O)c4cc5cc(CP(=O)(O)O)ccc5s4)C(=O)N32)C1 [Compound 510, ((2-(((3S,6S,9aS)-3-(3-(5-cyano-4-methylpyridin-3-yl)azetidine-1-carbonyl)-5-oxooctahydro-1H-pyrrolo[1,2-a]azepin-6-yl)carbamoyl)benzo[b]thiophen-5-yl)methyl)phosphonic acid]
3 to 30 µM	1 to 10 µM	COc1cc(C)c(C2CN(C(=O)[C@@H]3CC[C@@H]4CCC[C@H](NC(=O)c5cc6cc(CP(=O)(O)O)ccc6s5)C(=O)N43)C2)cn1 [Compound 511, ((2-(((3S,6S,9aS)-3-(3-(6-methoxy-4-methylpyridin-3-yl)azetidine-1-carbonyl)-5-oxooctahydro-1H-pyrrolo[1,2-a]azepin-6-yl)carbamoyl)benzo[b]thiophen-5-yl)methyl)phosphonic acid]
3 to 30 µM	< 0.1 µM	CN(C)c1ccncc1C1CN(C(=O)[C@@H]2CC[C@@H]3CCC[C@H](NC(=O)c4cc5cc(CP(=O)(O)O)ccc5s4)C(=O)N32)C1 [Compound 512, ((2-(((3S,6S,9aS)-3-(3-(4-(dimethylamino)pyridin-3-yl)azetidine-1-carbonyl)-5-oxooctahydro-1H-pyrrolo[1,2-a]azepin-6-yl)carbamoyl)benzo[b]thiophen-5-yl)methyl)phosphonic acid]
0.3 to 3 µM	0.1 to 1 µM	O=C(N[C@H]1CCCC[C@H]2CC[C@@H](C(=O)N3CCC(O)(c4cc[nH]c(=O)c4)C3)N2C1=O)c1cc2cc(C(F)(F)P(=O)(O)O)ccc2s1 (stereo partly drawn) [Compound 513, (difluoro(2-(((3S,6S,10aS)-3-(3-hydroxy-3-(2-oxo-1,2-dihydropyridin-4-yl)pyrrolidine-1-carbonyl)-5-oxodecahydropyrrolo[1,2-a]azocin-6-yl)carbamoyl)benzo[b]thiophen-5-yl)methyl)phosphonic acid]
3 to 30 µM	< 0.1 µM	O=C(N[C@H]1CCC[C@H]2CC[C@@H](C(=O)N3CC(c4cnccc4F)C3)N2C1=O)c1cc2cc(CP(=O)(O)O)ccc2s1 [Compound 514, ((2-(((3S,6S,9aS)-3-(3-(4-fluoropyridin-3-yl)azetidine-1-carbonyl)-5-oxooctahydro-1H-pyrrolo[1,2-a]azepin-6-yl)carbamoyl)benzo[b]thiophen-5-yl)methyl)phosphonic acid]
